# Reference: patent US8524744B2, “Arylamine ketones, their preparation methods, the pharmaceutical composition containing them and their use” (Institute of Mataria Medica, Chinese Academy of Medical …, priority 2004, dated 2013)
# Counter-ions that a name gives are not always drawn.
# Legend:
# [1] = system: polymorphonuclear leucocytes from rat pleural cavity; assay: release of β-glucuronidase by polymorphonuclear leucocytes from rat pleural cavity in vitro (PAF as irritant); assay type: cell-based
# Procedure: 1% carrageenan was injected into the right pleural cavity of Wistar rat to induce polymorphonuclear leucocytes. The cells was suspended in Dulbecoo's buffer at the concentration of 2.5×10^6 cells·ml^1. The fluid containing the compound or solvent and 250 μl of cells suspension were added in test tube and incubated in 37° C. waterbath for 15 min. Then 2.5 μl of cytochalasin B (1×10^−3 mol·L^−1) was added and the reaction was continued for 5 min. Then 2.5 μl of PAF (1×10^−4 mol·L^−1) was added and for another 5 min. The test tubes were put into ice bath to stop the reaction. The supernatant was isolated and used as the β-glucuronidase release fluid. 25 μl of the enzyme fluid, 25 μl of phenolphthalein-glucuronic acid (2.5 mmol·L^−1) and 100 μl of acetic acid buffer (0.1 mol·L^−1) were added into each well of 96-well plate which was placed into incubater and kept at 37° C.3 for 18 hr. 150 μl of NaOH (0.3 mol·L^−1) was added in each well to cease the reaction and the optical density was read at 550 nm.
# [2] = system: mouse ear edema induced by croton oil; assay: mouse ear edema induced by croton oil; assay type: in vivo; details: orally, 50 mg·kg^−1, Kunming mice
# Procedure: Kuming mice (male, 18-22 g) were randomly divided into two groups (treatment and control) with 10 animals for each group. The animals were orally administrated with compounds or solvent, respectively. 1 hr later, 50 μl of 2% croton oil was smeared on the two sides of mouse left ear. After 4 hr the mice were sacrificed by cervical vertebra displacement. The two ears were cut off and the central sections were excised using a punch with a diameter of 8 mm and weighed. Edema was quantified as the weight difference between the two sections.
# [3] = system: cutaneous vascular permeability in mice induced by PAF; assay: increase of cutaneous vascular permeability in mice induced by PAF; assay type: in vivo, mouse; details: orally, 50 mg·kg^−1, Kunming mice
# Procedure: Kunming mice (male, 18-22 g) were randomly divided into two groups (treatment and control) with 10 animals for each group. The animals were orally administrated with the compounds or solvent, respectively. 1 hr later, 0.25 ml of 1% evans blue dye was injected into the tail vein. After 10 min, 0.1 ml of PAF (1×10^−8 mol·L^−1) was intracutaneously injected into the dorsal skin shaved. 1 hr later, the animals were sacrificed by cervical vertebra displacement. The skin with blue spot was cut off. The evans blue dye was extracted by 0.8 ml of mixed solution of acetone and normal saline (7:3). The supernatant was transferred into the 96-well plate. The optical density was measured at 620 nm.
# [4] = Dose 1 × 10^−5 mol · L^−1, Irritant 2 × 10^−7 mol · L^−1
# [5] = Dose 1 × 10^−5 mol · L^−1, Irritant 1 × 10^−6 mol · L^−1
# [6] = Dose 1 × 10^−4 mol · L^−1, Irritant 2 × 10^−7 mol · L^−1
# [7] = Dose 2 × 10^−6 mol · L^−1, Irritant 1 × 10^−7 mol · L^−1
compound,measurement,setting,value
"CCOC(=O)C1CCN(CCC(=O)/C=C/c2ccc(Cl)cc2)CC1 (as salt: hydrochloride) [Compound 3, 5-[(4-Ethoxycarbonyl)piperidyl]-1-(4-chlorophenyl)-1-penten-3-one hydrochloride]",melting point,,172 to 174 °C
"COc1ccc(C=CC(=O)CCN2CC(C)OC(C)C2)cc1O (stereo not shown) (as salt: hydrochloride) [Compound 36, 5-(2,6-Dimethylmorpholinyl)-1-(3-hydroxy-4-methoxyphenyl)-1-penten-3-one hydrochloride]",melting point,,194 to 196 °C
"Cl.O=C(C=Cc1ccc(C(F)(F)F)cc1)CCN1CCN(Cc2ccccc2)CC1 [Compound 44b, 5-[(N4-Benzyl)piperazyl]-1-(4-trifluoromethylphenyl)-1-penten-3-one hydrochloride]",Inhibition (%) of β-glucuronidase release,[1]; [4],57.93%
"CCOC(=O)C1CCN(CCC(=O)C=Cc2ccc(Cl)cc2Cl)CC1.Cl [Compound 10, 5-[(4-Ethoxycarbonyl)piperidyl]-1-(2,4-dichlorophenyl)-1-penten-3-one hydrochloride]",Inhibition (%) of β-glucuronidase release,[1]; [5],51.07%
"CCOC(=O)N1CCN(CCC(=O)C=Cc2cc(OC)c(OC)c(OC)c2)CC1.Cl [Compound 28, 5-[(N4-Ethoxycarbonyl)piperazyl]-1-(3,4,5-trimethoxy)phenyl-1-penten-3-one hydrochloride]",Inhibition (%) of β-glucuronidase release,[1]; [6],21.8%
"CN1CCN(CCC(=O)C=Cc2ccc3c(c2)OCO3)CC1.Cl [Compound 52, 5-[(N4-Methyl)piperazyl]-1-(3,4-methylenedioxyphenyl)-1-penten-3-one hydrochloride]",Inhibition (%) of β-glucuronidase release,[1]; [6],31.2%
"Cc1ccc(C=CC(=O)CCN2CCC(Cc3ccccc3)CC2)cc1.Cl [Compound 19, 5-[(4-benzyl)piperidyl]-1-(4-methylphenyl)-1-penten-3-one hydrochloride]",Inhibition (%) of β-glucuronidase release,[1]; [4],79.01%
"O=C(C=Cc1ccc(C(F)(F)F)cc1)CCN1CCC(Cc2ccccc2)CC1 (as salt: hydrochloride) [Compound 20, 5-[(4-Benzyl)piperidyl]-1-(4-trifluoromethylphenyl)-1-penten-3-one hydrochloride]",melting point,,175 to 179 °C
COc1ccccc1N1CCN(CCC(=O)C=Cc2ccc(Cl)cc2)CC1.Cl [Compound 58],Inhibition (%) of β-glucuronidase release,[1]; [5],21.31%
"CC(CN1CCN(Cc2ccc3c(c2)OCO3)CC1)C(=O)C=Cc1ccc(Cl)cc1.Cl (stereo not shown) [Compound 53, 5-[N4-(3,4-Methylenedioxy(benzyl)piperazyl)]-1-(4-chlorophenyl)-1-penten-4-methyl-3-one hydrochloride]",Inhibition (%) of β-glucuronidase release,[1]; [5],37.82%
"CCOc1cc(C=CC(=O)CCN2CC(C)OC(C)C2)ccc1O (stereo not shown) (as salt: hydrochloride) [Compound 37, 5-(2,6-Dimethylmorpholinyl)-1-(3-ethoxy-4-hydroxyphenyl)-1-penten-3-one hydrochloride]",melting point,,198 to 201 °C
"COc1ccc(C=CC(=O)CCN2CCC(Cc3ccccc3)CC2)cc1 (as salt: hydrochloride) [Compound 22a, 5-[(4-Benzyl)piperidyl]-1-(4-methoxyphenyl)-1-penten-3-one hydrochloride]",melting point,,180 to 184 °C
"CCCOc1ccc(C=CC(=O)CCN2CCC(Cc3ccccc3)CC2)cc1.Cl [Compound 22b, 5-[(4-Benzyl)piperidyl]-1-(4-propoxyphenyl)-1-penten-3-one hydrochloride]",Inhibition (%) of β-glucuronidase release,[1]; [5],41.79%
"CCOC(=O)N1CCN(CCC(=O)C=Cc2ccc(C#N)cc2)CC1.Cl [Compound 34a, 5-[(N4-Ethoxycarbonyl)piperazyl]-1-(4-cyanophenyl)-1-penten-3-one hydrochloride]",Inhibition (%) of β-glucuronidase release,[1]; [7],121.34%
"Cl.O=C(C=Cc1ccc(Cl)cc1Cl)CCN1CCC(Cc2ccccc2)CC1 [Compound 23, 5-[(4-Benzyl)piperidyl]-1-(2,4-dichlorophenyl)-1-penten-3-one hydrochloride]",Inhibition (%) of β-glucuronidase release,[1]; [5],32.27%
"CCCCOc1ccc(C=CC(=O)CCN2CCC(Cc3ccccc3)CC2)cc1.Cl [Compound 22, 5-[(4-Benzyl)piperidyl]-1-(4-butoxyphenyl)-1-penten-3-one hydrochloride]",Inhibition (%) of β-glucuronidase release,[1]; [5],69.00%
"CCOC(=O)C1CCCN(CCC(=O)C=Cc2ccc(Cl)cc2Cl)C1.Cl (stereo not shown) [Compound 16, 5-[(3-Ethoxycarbonyl)piperidyl]-1-(2,4-dichlorophenyl)-1-penten-3-one hydrochloride]",Inhibition (%) of β-glucuronidase release,[1]; [7],84.38%
same,IC50,[1]; rat polymorphonuclear leucocytes,22.4 nM
same,Inhibition (%) of mouse ear edema,[2],29.05%
same,Inhibition (%) of increase of cutaneous vascular permeability,[3],48.09%
"CCOC(=O)C1CCCN(CCC(=O)C=Cc2ccc3c(c2)OCO3)C1.Cl (stereo not shown) [Compound 15, 5-[(3-Ethoxycarbonyl)piperidyl]-1-(3,4-methylenedioxyphenyl)-1-penten-3-one hydrochloride]",Inhibition (%) of β-glucuronidase release,"[1]; Dose 1 × 10^−5 mol · L^−1, Irritant 1 × 10^−7 mol · L^−1",141.17%
"Cl.O=C(C=Cc1ccc2c(c1)OCO2)CCN1CCN(Cc2ccccc2)CC1 [Compound 51, 5-[(N4-Benzyl)piperazyl]-1-(3,4-methylenedioxyphenyl)-1-penten-3-one hydrochloride]",Inhibition (%) of β-glucuronidase release,[1]; [6],55.1%
"COc1ccc(C=CC(=O)CCN2CC(C)OC(C)C2)cc1.Cl (stereo not shown) [Compound 39c, 5-(2,6-Dimethylmorpholinyl)-1-(4-methoxyphenyl)-1-penten-3-one hydrochloride]",Inhibition (%) of β-glucuronidase release,[1]; [5],28.66%
"CCOC(=O)N1CCN(CCC(=O)C=Cc2ccc(Br)cc2)CC1.Cl [Compound 30, 5-[(N4-Ethoxycarbonyl)piperazyl]-1-(4-bromophenyl)-1-penten-3-one hydrochloride]",Inhibition (%) of β-glucuronidase release,[1]; [5],23.54%
5-[(N4-Ethoxycarbonyl)piperazyl]-1-(4-trifluoromethylphenyl)-1-penten-3-one hydrochloride [Compound 29],Inhibition (%) of β-glucuronidase release,[1]; [5],22.22%
"CCOC(=O)N1CCN(CCC(=O)C=Cc2ccc(OC)cc2)CC1.Cl [Compound 34d, 5-[(N4-Ethoxycarbonyl)piperazyl]-1-(4-methoxyphenyl)-1-penten-3-one hydrochloride]",Inhibition (%) of β-glucuronidase release,[1]; [5],62.64%
"CC1CN(CCC(=O)C=Cc2ccc(Br)cc2)CC(C)O1.Cl (stereo not shown) [Compound 39b, 5-(2,6-Dimethylmorpholinyl)-1-(4-bromophenyl)-1-penten-3-one hydrochloride]",Inhibition (%) of β-glucuronidase release,[1]; [5],40.48%
"CCOC(=O)C1CCN(CCC(=O)C=Cc2ccc(O)cc2)CC1.Cl [Compound 1, 5-[(4-Ethoxycarbonyl)piperidyl]-1-(4-hydroxyphenyl)-1-penten-3-one hydrochloride]",Inhibition (%) of β-glucuronidase release,"[1]; Dose 1 × 10^−5 mol · L^−1, Irritant 5 × 10^−7 mol · L^−1",97.87%
